The results in this text go back to ChEMBL document CHEMBL5661980, “Discovery of OSI-906: a selective and orally efficacious dual inhibitor of the IGF-1 receptor and insulin receptor” (Future Med Chem, 2009).

A short description of data set [1]: Cmax in CD-1 mouse measured at 250 mg/kg, po for 1 to 24 hrs by HPLC-MS/MS analysis. The data set is classed as ADME, organism-based. To be noted: in vivo, time 1-24 hrs.
A short description of data set [2]: Clearance in CD-1 mouse measured at 5 mg/kg, iv for 1 to 24 hrs by HPLC-MS/MS analysis. The data set is classed as ADME, organism-based. The conditions noted are these: in vivo, time 1-24 hrs.
Data set [3] concerns NIH3T3. The experiment in a line: Antitumor activity against mouse 3T3 cells allografted in athymic nu/nu CD-1 mouse assessed as tumor growth inhibition at 25 mg/kg, po for 12 days relative to control. To be noted: NIH3T3, 288 h, time 12 day, read-out: TGI. The data set is classed as functional.
Data set [4] is described as follows: Oral bioavailability in Beagle dog measured at 5 mg/kg for 1 to 24 hrs by HPLC-MS/MS analysis. The data set is classed as ADME, organism-based, Canis lupus familiaris. To be noted: in vivo, time 1-24 hrs.
Data set [5] in a line: Cmax in CD-1 mouse measured at 5 mg/kg, po for 1 to 24 hrs by HPLC-MS/MS analysis. It is filed as ADME, organism-based. The conditions noted are these: in vivo, time 1-24 hrs.
Data set [6] is described as follows: AUC last in CD-1 mouse measured at 250 mg/kg, po for 1 to 24 hrs by HPLC-MS/MS analysis. It is filed as ADME, organism-based. To be noted: in vivo, time 1-24 hrs.
Data set [7] is described as follows: Oral bioavailability in Sprague-Dawley rat measured at 100 mg/kg for 1 to 24 hrs by HPLC-MS/MS analysis. The data set is classed as ADME, organism-based. To be noted: in vivo, time 1-24 hrs.
Data set [8] can be described thus: Volume of distribution at steady state in Beagle dog measured at 2.5 mg/kg, iv for 1 to 24 hrs by HPLC-MS/MS analysis. It is filed as ADME, organism-based, Canis lupus familiaris. The conditions noted are these: in vivo, time 1-24 hrs, read-out: Vdss.
Data set [9] concerns NIH3T3. The experiment in a line: Antitumor activity against mouse 3T3 cells allografted in athymic nu/nu CD-1 mouse assessed as tumor regression at 75 mg/kg, po for 12 days relative to control. The data set is classed as functional. To be noted: time 12 day.
Data set [10] can be described thus: Cmax in Sprague-Dawley rat measured at 100 mg/kg, po for 1 to 24 hrs by HPLC-MS/MS analysis. To be noted: in vivo, time 1-24 hrs. It is filed as ADME, organism-based.
For a further data set, the target named is Cytochrome P450 2D6 (Homo sapiens, UniProt P10635). The experiment in a line: Inhibition of CYP2D6 (unknown origin) in presence of NADPH generating system incubated for 20 mins by luminescent method. The data set is classed as ADME.
Data set [11] is described as follows: AUC last in CD-1 mouse measured at 25 mg/kg, po for 1 to 24 hrs by HPLC-MS/MS analysis. It is filed as ADME, organism-based. The conditions noted are these: in vivo, time 1-24 hrs.
Data set [12] is described as follows: Clearance in Beagle dog measured at 2.5 mg/kg, iv for 1 to 24 hrs by HPLC-MS/MS analysis. The data set is classed as ADME, organism-based, Canis lupus familiaris. The conditions noted are these: in vivo, time 1-24 hrs.
A short description of data set [13]: AUC last in CD-1 mouse measured at 75 mg/kg, po for 1 to 24 hrs by HPLC-MS/MS analysis. The data set is classed as ADME, organism-based. The conditions noted are these: in vivo, time 1-24 hrs.
The subject of data set [14] is NIH3T3. The experiment in a line: Antitumor activity against mouse 3T3 cells allografted in athymic nu/nu CD-1 mouse assessed as tumor regression at 25 mg/kg, po for 12 days relative to control. The data set is classed as functional. The conditions noted are these: time 12 day.
Data set [15] can be described thus: AUC (0 to infinity) in Sprague-Dawley rat measured at 5 mg/kg, iv for 1 to 24 hrs by HPLC-MS/MS analysis. The data set is classed as ADME, organism-based. The conditions noted are these: in vivo, time 1-24 hrs.

Molecules are shown by their SMILES.

Sequence of Cytochrome P450 2D6 (P10635 whole entry): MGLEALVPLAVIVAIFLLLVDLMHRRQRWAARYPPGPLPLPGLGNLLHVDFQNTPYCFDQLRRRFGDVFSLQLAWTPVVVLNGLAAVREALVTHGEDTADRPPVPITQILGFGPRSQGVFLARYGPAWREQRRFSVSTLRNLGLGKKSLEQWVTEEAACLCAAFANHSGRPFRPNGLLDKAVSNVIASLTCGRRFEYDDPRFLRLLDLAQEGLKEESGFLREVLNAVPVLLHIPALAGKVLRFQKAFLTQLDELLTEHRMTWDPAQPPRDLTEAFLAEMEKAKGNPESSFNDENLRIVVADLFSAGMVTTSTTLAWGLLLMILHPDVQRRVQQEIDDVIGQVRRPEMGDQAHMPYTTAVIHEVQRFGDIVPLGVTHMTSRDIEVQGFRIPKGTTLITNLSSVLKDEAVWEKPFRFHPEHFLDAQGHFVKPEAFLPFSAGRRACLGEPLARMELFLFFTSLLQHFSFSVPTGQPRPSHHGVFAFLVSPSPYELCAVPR

By Cmax is commonly meant the highest concentration seen after dosing. As a reminder, the clearance is the volume of plasma or blood freed of the substance per unit of time. Higher therefore signals a high capacity for elimination. A word on the bioavailability: it is the share of a dose that reaches the circulation, judged against a reference dose that is usually intravenous. High values mean good availability, low ones poor availability. By AUC(0-t) is commonly meant the area under the concentration-time curve up to a stated or last time point. A higher AUC(0-t) goes with more exposure. The IC50 is the point on the concentration scale where inhibition reaches its midpoint. As a reminder, the AUC(0-inf) is total exposure, with the tail of the curve extrapolated. Consider `C[C@]1(O)C[C@@H](c2nc(-c3ccc4ccc(-c5ccccc5)nc4c3)c3c(N)nccn32)C1` [LINSITINIB], for which the figures for the maximum concentration (Cmax) in [1], in data set [5] and in [10] were 42 µM, 3.42 µM and 34.6 µM, respectively. In addition, the values for the clearance in data set [2] and in [12] were 0.72 L/h/kg and 2.34 L/h/kg, respectively. Further, the inhibition in vivo at 25 mg/kg with NIH3T3 [3] turned out to be 60%. For the same molecule, the bioavailability in data set [4] amounted to 64%; in [7], 92%. Besides, the AUC(0-t) stood at 317 µg·h/mL in data set [6], 26.7 µg·h/mL in [11] and 87.5 µg·h/mL in data set [13]. In [8], the Vd stood at 4.3 L/kg. Besides, the Activity was 55% with NIH3T3 [9] and 0% in the data set with NIH3T3 [14]. At Cytochrome P450 2D6, the concentration for half-maximal inhibition (IC50) is > 10 µM. Moreover, the AUC(0-inf) in data set [15] came to 23.1 µg·h/mL.
